Laboratory results: US20180291468A1, “MARKERS OF TUMOR CELL RESPONSE TO ANTI-CANCER THERAPY” (REGENERON PHARMACEUTICALS, INC., priority 2013, published 2018)

Columns and labels:
Type in all cases: in vivo
COLO 205 tumor = assay: Plasma miRNA profiling by qPCR panel in COLO 205 tumor-bearing mice, drug versus vehicle; settings: for miRNAs different upon drug treatment: Higher: plasma, relative to a vehicle-treated control, 3 days, matching 14 day pattern
Protocol: (§1) Plasma samples (50 uL) were stored at −80° C. after receiving them. The samples were thawed on ice, and total RNA was isolated with the miRCURY RNA Isolation Kit for Biofluids (Exiqon) according to the supplied protocol (1 uL of Exiqon spike-in UniRT RNA mix was added to each sample before RNA isolation). RNA was eluted into 50 uL nuclease-free water, and either processed directly for cDNA synthesis of stored at −80° C. until that time. RNA from each sample was used to create cDNA in 40 uL reaction volume with the Universal cDNA Synthesis Kit II (Exiqon) according to the supplied protocol. RNA concentration for plasma samples is not quantitated; 8 uL each RNA sample is used without adjusting concentration. The 40 uL of cDNA per sample was then used to set-up qPCR directly or stored at −20° C. until use. The 40 uL cDNA was diluted into 4 mL of nuclease-free water, and then mixed with 4 mL 2X ExiLENT SYBR Green master mix (Exiqon) to create 8 mL qPCR mix, according to protocol supplied with miRNome Panels (Exiqon). The 8 ml master mix was then pipetted into the two 384-well plates (Exiqon microRNA Ready-to-Use PCR, Human panel I+II, V3.M), 10 ul per well according to the supplied protocol. The plates were briefly centrifuged, sealed, and run on the ABI Viia7 real time PCR thermocycler, using the PCR template program supplied by Exiqon. Results were exported as text files and then imported into the GenEx software (Exiqon) for analysis. Data pre-processing and analysis steps were performed according to the recommendations of the Exiqon Data Analysis Guide. Briefly, biological replicate were grouped, outliers were automatically detected and removed, Ct values higher than 37 were considered background and removed, missing data was filled by the GenEx software with an imputed value based on group mean. Cts for each sample were normalized to the global mean of all expressed miRNAs with a Ct<34.
(§2) Immune compromised mice were injected with COLO 205 human colorectal cancer cells and tumors were allowed to develop, after which the mice were treated with either irinotecan or vehicle for 14 days. In a second control group, normal mice maintained in parallel but not bearing tumors were treated with either irinotecan or vehicle. […] During the course of drug treatment, blood plasma samples were taken from all mice at regular intervals from 3 to 14 days. RNA was prepared from the plasma samples and analyzed for miRNA content by a panel of quantitative PCR assays for approximately 700 miRNAs. The relative quantities of each miRNA assayed were normalized to the global mean in each sample and then compared between the paired groups: drug versus vehicle treatment in tumor-bearing mice; drug versus vehicle in tumor-free mice; and tumor bearing versus tumor-free mice. Samples were taken from six replicate mice for each time point in each of the categories.
To eliminate those miRNA differences that were the result of drug treatment alone, we examined the miRNA profiles in the irinotecan treated normal, tumor-free mice compared with the same type of mice treated with vehicle.
We looked for miRNAs whose pattern of detection matched that in the mice treated with drug for 14 days. The pattern of quantification for these miRNAs—higher or lower in the drug treated mice compared to the vehicle treated controls—matched miRNAs from the 14 day time point. We found three miRNAs, miR-30d-3p, miR-483-5p, and miR-708-3p, that were elevated in the drug treated tumor bearing mice compared with the vehicle controls and 11 miRNAs, miR-21-3p, miR-101-5p, miR-122-3p, miR-197-3p, miR-429, miR-501-3p, miR-509-3p, miR-598, miR-206, miR-885-5p, and miR-1972, that were lower in the drug treated mice compared with the controls. These 14 miRNAs form a signature of plasma miRNA content that correlates with drug efficacy late in the course of drug treatment and predicts efficacy early in the drug treatment regimen before any effects of irinotecan on tumor burden could be detected. […]

[1] = test system: COLO 205 human colorectal cancer cells; assay: Drug efficacy in COLO 205 tumor-bearing mice (tumor burden)
Protocol: as §2, with “Samples were taken from six replicate mice for each time point in each of the categories.” left out
We looked for miRNAs whose pattern of detection matched that in the mice treated with drug for 14 days. The pattern of quantification for these miRNAs—higher or lower in the drug treated mice compared to the vehicle treated controls—matched miRNAs from the 14 day time point. […] These 14 miRNAs form a signature of plasma miRNA content that correlates with drug efficacy late in the course of drug treatment and predicts efficacy early in the drug treatment regimen before any effects of irinotecan on tumor burden could be detected.

[2] = test system: PC3M prostate cancer tumor; assay: miRNA marker levels after PC3M prostate cancer tumor implantation and anti-tumor drug
Protocol: as §1

A549 lung cancer tumor = assay: miRNA marker levels after A549 lung cancer tumor implantation and anti-tumor drug
Protocol: as §1

[3] = three days, matched 14 day time point
[4] = three days following administration

SMILES: CCc1c2c(nc3ccc(OC(=O)N4CCC(N5CCCCC5)CC4)cc13)-c1cc3c(c(=O)n1C2)COC(=O)[C@]3(O)CC [irinotecan]
- detection of the 11 miRNAs in plasma of drug treated mice (COLO 205 tumor; detectable in the vehicle treated mice): undetectable
- miRNAs different upon drug treatment: Higher (COLO 205 tumor; miR-483-5p): miR-483-5p
- miRNAs different upon drug treatment: Higher (COLO 205 tumor; miR-708-3p): miR-708-3p
- miRNAs different upon drug treatment: Higher (COLO 205 tumor; miR-30d-3p): miR-30d-3p
- plasma miR-21-3p, miR-101-5p, miR-122-3p, miR-197-3p, miR-429, miR-501-3p, miR-509-3p, miR-598, miR-206, miR-885-5p and miR-1972 in drug treated mice compared with controls (COLO 205 tumor; [3]): lower
- plasma miR-30d-3p, miR-483-5p and miR-708-3p in drug treated tumor bearing mice compared with vehicle controls (COLO 205 tumor; [3]): elevated
- detection of miR-30d-3p and miR-708-3p in plasma of treated tumor-bearing mice (COLO 205 tumor; tumor-bearing mice): went from undetected to detected
- plasma miR-483-5p in treated tumor-bearing mice (COLO 205 tumor; tumor-bearing mice): increased
- tumor burden in drug treated mice versus vehicle treated control group ([1]; after 14 days of drug treatment): significantly lower tumor burden
- difference in tumor burden, drug versus vehicle ([1]; treated for only three days): no significant difference in tumor burden

SMILES: CC(=O)O[C@@]12CO[C@@H]1C[C@H](O)[C@@]1(C)C(=O)[C@H](O)C3=C(C)[C@@H](OC(=O)[C@H](O)[C@@H](NC(=O)OC(C)(C)C)c4ccccc4)C[C@@](O)([C@@H](OC(=O)c4ccccc4)[C@H]21)C3(C)C [Docetaxel]
- level of certain miRNA markers that decrease upon tumor implantation (FIG. 7) ([2]; following administration): increase
- level of certain miRNA markers that increase upon tumor implantation (FIG. 5) ([2]; following administration): decrease
- level of miR-190, miR-153 and miR-92a-1 (FIG. 6) ([2]; following administration): decrease
- level of miR-634 and miR-647 (FIG. 8) ([2]; following administration): increase
- particular miRNA marker levels upon administration to prostate tumors (FIG. 2) ([2]; prostate tumors (PC3M)): decrease

SMILES: N.N.[Cl][Pt][Cl] [Cisplatin]
- particular miRNA marker levels upon administration to lung tumors (FIG. 2) (A549 lung cancer tumor; lung tumors (A549)): decrease
- level of certain miRNA markers that decrease upon tumor implantation (FIG. 3) (A549 lung cancer tumor; [4]): increase
- level of certain miRNA markers that increase upon tumor implantation (FIG. 1) (A549 lung cancer tumor; [4]): decrease
- level of miR-16-5p, miR-1208, miR-24-3p and miR-588 (FIG. 4) (A549 lung cancer tumor; [4]): increase
